{"source": "PubChem BioAssay AID2060890", "about": "(Molecular Pharmacology Branch, DTP, NCI, 2025)", "system": "LG0703-F948-PDC complex spheroid viability", "assay": "Anticancer human tumor LG0703-F948-PDC patient-derived lung adenocarcinoma cell line growth inhibition [RAS]", "conditions": "for pIC50: curve of first compound; for viability, T/C: stronger effect = lower value", "summary_of_the_method": "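Agents were tested in combination matrices in half-log decrements from a top concentration at or near clinical Cmax (10 microM if undetermined). Targets were multi-cell spheroids of tumour lines plus HUVEC and MSC stromal cells.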", "note": "pIC50: −log10 of the molar value.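 Further: spheroids exposed to agents for 7 days.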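 Wherever viability, T/C is given: 100% = DMSO vehicle wells.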", "data": [{"smiles": "CC(C)n1nc(-c2ccc3oc(N)nc3c2)c2c(N)ncnc21", "note": "+ CCn1c(-c2cc(N3CCN(C)CC3)cnc2C(C)OC)c2c3cc(ccc31)-c1csc(n1)CC(NC(=O)C1CC1C)C(=O)N1CCCC(N1)C(=O)OCC(C)(C)C2", "values": [{"measurement": "pIC50", "setting": "second compound 0.000949 µM", "value": 8.82}, {"measurement": "pIC50", "setting": "second compound 0.003 µM", "value": 9.37}, {"measurement": "pIC50", "setting": "second compound 0.00949 µM", "value": "> 9.50"}, {"measurement": "pIC50", "setting": "second compound 0.03 µM", "value": "> 9.50"}, {"measurement": "pIC50", "setting": "second compound 0.0949 µM", "value": "> 9.50"}, {"measurement": "pIC50", "setting": "second compound 0.3 µM", "value": "> 9.50"}, {"measurement": "viability, T/C", "setting": "second compound 0.000949 µM, first compound 0.000316 µM", "value": 66.8, "unit": "%"}, {"measurement": "viability, T/C", "setting": "second compound 0.000949 µM, first compound 0.001 µM", "value": 56.5, "unit": "%"}, {"measurement": "viability, T/C", "setting": "second compound 0.000949 µM, first compound 0.00316 µM", "value": 38.5, "unit": "%"}, {"measurement": "viability, T/C", "setting": "second compound 0.000949 µM, first compound 0.01 µM", "value": 30.5, "unit": "%"}, {"measurement": "viability, T/C", "setting": "second compound 0.000949 µM, first compound 0.0316 µM", "value": 12.7, "unit": "%"}, {"measurement": "viability, T/C", "setting": "second compound 0.000949 µM, first compound 0.1 µM", "value": 5.51, "unit": "%"}, {"measurement": "viability, T/C", "setting": "second compound 0.003 µM, first compound 0.000316 µM", "value": 55.5, "unit": "%"}, {"measurement": "viability, T/C", "setting": "second compound 0.003 µM, first compound 0.001 µM", "value": 34.8, "unit": "%"}, {"measurement": "viability, T/C", "setting": "second compound 0.003 µM, first compound 0.00316 µM", "value": 29.7, "unit": "%"}, {"measurement": "viability, T/C", "setting": "second compound 0.003 µM, first compound 0.01 µM", "value": 13.1, "unit": "%"}, {"measurement": "viability, T/C", "setting": "second compound 0.003 µM, first compound 0.0316 µM", "value": 8.23, "unit": "%"}, {"measurement": "viability, T/C", "setting": "second compound 0.003 µM, first compound 0.1 µM", "value": 3.1, "unit": "%"}, {"measurement": "viability, T/C", "setting": "second compound 0.00949 µM, first compound 0.000316 µM", "value": 31.1, "unit": "%"}, {"measurement": "viability, T/C", "setting": "second compound 0.00949 µM, first compound 0.001 µM", "value": 20.7, "unit": "%"}, {"measurement": "viability, T/C", "setting": "second compound 0.00949 µM, first compound 0.00316 µM", "value": 12.6, "unit": "%"}, {"measurement": "viability, T/C", "setting": "second compound 0.00949 µM, first compound 0.01 µM", "value": 6.99, "unit": "%"}, {"measurement": "viability, T/C", "setting": "second compound 0.00949 µM, first compound 0.0316 µM", "value": 4.36, "unit": "%"}, {"measurement": "viability, T/C", "setting": "second compound 0.00949 µM, first compound 0.1 µM", "value": 2.06, "unit": "%"}, {"measurement": "viability, T/C", "setting": "second compound 0.03 µM, first compound 0.000316 µM", "value": 12.7, "unit": "%"}, {"measurement": "viability, T/C", "setting": "second compound 0.03 µM, first compound 0.001 µM", "value": 13.1, "unit": "%"}, {"measurement": "viability, T/C", "setting": "second compound 0.03 µM, first compound 0.00316 µM", "value": 6.11, "unit": "%"}, {"measurement": "viability, T/C", "setting": "second compound 0.03 µM, first compound 0.01 µM", "value": 5.4, "unit": "%"}, {"measurement": "viability, T/C", "setting": "second compound 0.03 µM, first compound 0.0316 µM", "value": 2.59, "unit": "%"}, {"measurement": "viability, T/C", "setting": "second compound 0.03 µM, first compound 0.1 µM", "value": 1.58, "unit": "%"}, {"measurement": "viability, T/C", "setting": "second compound 0.0949 µM, first compound 0.000316 µM", "value": 12.9, "unit": "%"}, {"measurement": "viability, T/C", "setting": "second compound 0.0949 µM, first compound 0.001 µM", "value": 8.35, "unit": "%"}, {"measurement": "viability, T/C", "setting": "second compound 0.0949 µM, first compound 0.00316 µM", "value": 6.05, "unit": "%"}, {"measurement": "viability, T/C", "setting": "second compound 0.0949 µM, first compound 0.01 µM", "value": 3.05, "unit": "%"}, {"measurement": "viability, T/C", "setting": "second compound 0.0949 µM, first compound 0.0316 µM", "value": 1.82, "unit": "%"}, {"measurement": "viability, T/C", "setting": "second compound 0.0949 µM, first compound 0.1 µM", "value": 1.05, "unit": "%"}, {"measurement": "viability, T/C", "setting": "second compound 0.3 µM, first compound 0.000316 µM", "value": 10.7, "unit": "%"}, {"measurement": "viability, T/C", "setting": "second compound 0.3 µM, first compound 0.001 µM", "value": 7.72, "unit": "%"}, {"measurement": "viability, T/C", "setting": "second compound 0.3 µM, first compound 0.00316 µM", "value": 4.76, "unit": "%"}, {"measurement": "viability, T/C", "setting": "second compound 0.3 µM, first compound 0.01 µM", "value": 3.02, "unit": "%"}, {"measurement": "viability, T/C", "setting": "second compound 0.3 µM, first compound 0.0316 µM", "value": 1.64, "unit": "%"}, {"measurement": "viability, T/C", "setting": "second compound 0.3 µM, first compound 0.1 µM", "value": 0.76, "unit": "%"}]}]}
